Experiments:
[1] = test system: NCI-N87 tumors (human gastric carcinoma cells); test: NCI-N87 gastric cancer xenograft model, third experiment (Example 3); type: in vivo, mice; conditions: AUY922 50 mg/kg, single agent
Description: Cells are harvested with trypsin (0.25% w/v)-EDTA (0.53 mM), are re-suspended in culture medium (with additives) and are counted with a Casy® system. Cell culture reagents are purchased from BioConcept (Allschwil, Switzerland). NCI-N87 tumors are established by injecting […] to 1×10^7 cells (in HBSS containing 50% v/v Matrigel) subcutaneously with a 23 Gauge needle. When tumors are established and reach between 180 and 210 mm^3, animals are randomized into treatment groups and the treatments are initiated. Compound A is formulated in NMP/PEG300/Solutol HS15/water (10:30:20:40% vol/vol) The compound is fully dissolved in NMP first and water is added immediately prior to administration to animals. […] All doses of AUY922 refer to the free base equivalent. AUY922 is administered iv at a volume of 10 ml/kg, twice a week. […] Pairwise comparisons are done using a one way ANOVA followed by Tukey's test. The level of significance of body weight change within a group between start and end of the treatment period is determined using a paired t-test. […] Calculations are performed using GraphPad Prism 4 for windows (GraphPad Software Inc.). In addition, an approximation of drug interactions is made using the method described by Clarke R., “Issues in experimental design and endpoint analysis in the study of experimental cytotoxic agents in vivo in breast cancer and other models”, Breast Cancer Res. Treat, 46, 255-78 (1997). This is applied to MV (Tumor volume). In the third efficacy experiment, the tumor model is set up as in the second experiment.

[2] = test system: KYSE-70 tumors (esophageal squamous cell carcinoma cells); test: KYSE-70 esophageal squamous cell carcinoma xenograft model (Example 4); type: in vivo, mice; conditions: Group 4: 50 mg/kg AUY922 intravenous twice a week
Description: KYSE-70 tumors are established by injecting 7.5×10^6 KYSE-70 cells, which are esophageal squamous cell carcinoma cells, in 100 μl cell suspension, with a 23 gauge needle subcutaneously on the right flank of the mice. Ten (10) days after implantation, […]. When tumors are established and reach about 156 mm^3 (minimum 86 mm^3, maximum 218 mm^3) approximately 10 days after implantation, 48 animals are selected and randomized into 6 treatment groups (n=8). Placebo control is formulated as 10 ml/kg of 250 μl NMP, 750 μl PEG300, 500 μl Solutol HS15, and 1000 μl water for delivery once daily per oral (Placebo 1) and as 10 ml/kg of 2.5 ml Glucose for delivery intravenously twice a week (Placebo 2). Compound A is formulated in NMP/PEG300/Solutol HS15/water (10:30:20:40% vol/vol). The compound is fully dissolved in NMP first and water is added immediately prior to administration to animals. […] All doses of AUY922 refer to the free base equivalent. AUY922 is administered iv at a volume of 10 ml/kg, twice a week.

[3] = test system: NCI-N87 tumors (human gastric carcinoma cells); test: NCI-N87 gastric cancer xenograft model, second experiment (Example 3); type: in vivo, mice; conditions: single agent
Description: Cells are harvested with trypsin (0.25% w/v)-EDTA (0.53 mM), are re-suspended in culture medium (with additives) and are counted with a Casy® system. Cell culture reagents are purchased from BioConcept (Allschwil, Switzerland). NCI-N87 tumors are established by injecting […] to 1×10^7 cells (in HBSS containing 50% v/v Matrigel) subcutaneously with a 23 Gauge needle. When tumors are established and reach between 180 and 210 mm^3, animals are randomized into treatment groups and the treatments are initiated. Compound A is formulated in NMP/PEG300/Solutol HS15/water (10:30:20:40% vol/vol) The compound is fully dissolved in NMP first and water is added immediately prior to administration to animals. […] All doses of AUY922 refer to the free base equivalent. AUY922 is administered iv at a volume of 10 ml/kg, twice a week. […] Pairwise comparisons are done using a one way ANOVA followed by Tukey's test. The level of significance of body weight change within a group between start and end of the treatment period is determined using a paired t-test. […] Calculations are performed using GraphPad Prism 4 for windows (GraphPad Software Inc.). In addition, an approximation of drug interactions is made using the method described by Clarke R., “Issues in experimental design and endpoint analysis in the study of experimental cytotoxic agents in vivo in breast cancer and other models”, Breast Cancer Res. Treat, 46, 255-78 (1997). This is applied to MV (Tumor volume).

[4] = test system: HGC-27 subcutaneous xenografts; test: HGC-27 gastric cancer xenograft model, treatment from day 20 for 14 days (Example 2); type: in vivo, mice; conditions: AUY922 50 mg/kg 2q.w. i.v.
Text: The procedure described in Example 1 is followed with the following modifications: Treatments are initiated on day 20 following tumor cell implantation of 5 million HCG-27 cells, when the average tumor volume is 316 mm^3 (164-485 mm^3).

[5] = test system: HGC-27 subcutaneous xenografts (human gastric carcinoma cells, PIK3CA mutation, PTEN null); test: HGC-27 gastric cancer xenograft model in female athymic nude mice (Example 1)
Description: Experiments are performed in female Hsd:Athymic Nude-FoxN1^nu Nude mice approximately 8-12 weeks of age at treatment start.
HGC-27 cells, which are human gastric carcinoma cells with a PIK3CA mutation (c1624G>A, p.E542K) and PTEN null, are grown in MEM culture medium containing 1% non-essential amino acid with 10% heat-inactivated FCS, and are incubated at 37° C. in a 5% CO2 humidified atmosphere.
HGC-27 tumors are established in vivo by injection 5×10^6 cells in 200 μl (100 μl PBS+100 μl Matrigel) (Cat #354234, BD Bioscience, Bedford, Mass.) subcutaneous into the right flank of the animals. The efficacy experiments are started when the tumors reach an average size of approximately 230 mm^3 (day 12 post cell injection).
Compound A is formulated in 0.5% Methylcellulose (MC). 80 mg of Compound A is added to 16 ml of 0.5% MC, then stirred/vortexed and sonicated in water bath sonicator for 1 h to obtain 5 mg/ml homogeneous suspension. 0.5% MC is used to dilute the 5 mg/ml solution to 2.5 mg/ml and 1.25 mg/ml for dosing. Compound A or vehicle is administered orally at a volume of 10 ml/kg.
Tumor volumes are measured with calipers and determined according to the formula: length×diameter^2×π/6. Antitumor activity is expressed as T/C % which is determined according to the formula: (mean change of tumor volume of treated animals/mean change of tumor volume of control animals)×100. Regressions (%) are calculated according to the formula ((mean tumor volume at end of treatment-mean tumor volume at start of treatment)/mean tumor volume at start of treatment)×100. Body weights and tumor volumes are recorded twice a week.
Where applicable, data is presented as mean±SEM. For all tests, the level of significance is set at p<0.05. For tumor volumes, comparisons between treatment groups and vehicle control group are done using one-way ANOVA followed by Dunnett's test. Tumor volumes comparisons between treatment groups are done using Kruskal-Wallis one way ANOVA post-hoc Student Newman Kuels test or Dunn's test. In the first experiment, Compound A is orally administered daily to HGC-27 subcutaneous xenografts, tumor-bearing nude mice at a dose of 12.5 mg/kg, 25 mg/kg and 50 mg/kg.

[6] = test system: NCI-N87 tumors (human gastric carcinoma cells); test: NCI-N87 gastric cancer xenograft model, first experiment (Example 3); type: in vivo, mice
Description: Cells are harvested with trypsin (0.25% w/v)-EDTA (0.53 mM), are re-suspended in culture medium (with additives) and are counted with a Casy® system. Cell culture reagents are purchased from BioConcept (Allschwil, Switzerland). NCI-N87 tumors are established by injecting […] to 1×10^7 cells (in HBSS containing 50% v/v Matrigel) subcutaneously with a 23 Gauge needle. When tumors are established and reach between 180 and 210 mm^3, animals are randomized into treatment groups and the treatments are initiated. Compound A is formulated in NMP/PEG300/Solutol HS15/water (10:30:20:40% vol/vol) The compound is fully dissolved in NMP first and water is added immediately prior to administration to animals. […] All doses of AUY922 refer to the free base equivalent. AUY922 is administered iv at a volume of 10 ml/kg, twice a week. […] Pairwise comparisons are done using a one way ANOVA followed by Tukey's test. The level of significance of body weight change within a group between start and end of the treatment period is determined using a paired t-test. […] Calculations are performed using GraphPad Prism 4 for windows (GraphPad Software Inc.). In addition, an approximation of drug interactions is made using the method described by Clarke R., “Issues in experimental design and endpoint analysis in the study of experimental cytotoxic agents in vivo in breast cancer and other models”, Breast Cancer Res. Treat, 46, 255-78 (1997). This is applied to MV (Tumor volume). Female athymic nude mice are treated orally once a day with 50 mg/kg Compound A, alone or in combination with 50 mg/kg of AUY922 administered intravenously twice a week. […] For compound A, B or the combination AB (with Vehicle Control group C), antagonism is predicted when the calculation AB/C>A/C×B/C, additive effect: AB/C=A/C×B/C, synergistic interactions are predicted to occur when AB/C<[…].

## CCNC(=O)c1noc(-c2cc(C(C)C)c(O)cc2O)c1-c1ccc(CN2CCOCC2)cc1 [AUY922, 5-(2,4-Dihydroxy-5-isopropyl-phenyl)-4-(4-morpholin-4-ylmethyl-phenyl)-isoxazole-3-carboxylic acid ethylamide, reference compound]
[1]
  T/C: 14%
[1]; ±SEM
  mean change of tumor volume: 27.4±10.2 mm^3
[2]; Day 10
  T/C [%] Day 10: 100.0%
[2]; Day 14
  T/C [%] Day 14: 145.3%
[2]; Day 17
  T/C [%] Day 17: 144.4%
[2]; Day 21
  T/C [%] Day 21: 131.8%
[2]; Day 24
  T/C [%] Day 24: 141.1%
[3]; AUY922 50 mg/kg i.v. twice per week
  T/C: 4.7%
[3]; AUY922 50 mg/kg, ±SEM
  mean change of tumor volume: 17.9±11.0 mm^3
[4]
  T/C: 57%
[5]; AUY922 50 mg/kg free base i.v. twice a week
  T/C %: 60.5%
[5]; AUY922 50 mg/kg i.v. twice a week
  body weight change: 6.6±2.6%
[5]; AUY922 50 mg/kg i.v. twice a week, mean±SEM
  mean change of tumor volume: 792.2±159 mm^3
[6]; AUY922 50 mg/kg i.v. twice a week, single agent
  tumor regressions: 7%
[6]; AUY922 50 mg/kg i.v. twice a week, single agent, ±SEM
  mean change of tumor volume: −15.1±21.4 mm^3
[6]; AUY922 50 mg/kg i.v. twice a week, change of tumor volume (mm^3)
  ΔTV AUY922 (B): −15.1
[6]; ΔTV of AUY922 over vehicle control, Clarke method
  B/C: −0.061
